Experimental data: the supplement of paper PMC6580486

Each molecule was assayed on U23674 (mouse alveolar rhabdomyosarcoma primary culture).
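Further: alveolar rhabdomyosarcoma tumor culture.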

Structure (SMILES) | IC50 cell viability
Cc1cc(O)cc(C)c1/C=C/c1cncc(C(=O)OC(C)(C)C)c1 | > 10 µM
CCCN(CCS(C)(=O)=O)Cc1ccc(-c2ccc3ncnc(Nc4ccc(OCc5cccc(F)c5)c(Cl)c4)c3c2)o1 | > 10 µM
Fc1ccc(-c2cc(-c3cn[nH]c3-c3ccccn3)ccn2)cc1 | > 10 µM
N#Cc1ccc2c(-c3ccnc(NC4CC4)n3)c(-c3ccc(F)cc3)nn2c1 | > 10 µM
CCn1c(-c2nonc2N)nc2c(C#CC(C)(C)O)nc(OC[C@@H](N)c3ccccc3)cc21 | > 10 µM
CC1=C(C(=O)Nc2ccc3[nH]ncc3c2)C(c2ccc(F)cc2)NC(=O)N1 (stereo not given) | > 10 µM
Fc1ccc(-c2nn3ccccc3c2-c2ccncc2)cc1 | > 10 µM
CCn1c(-c2nonc2N)nc2ccncc21 | > 10 µM
NC(=O)c1cccc(Nc2nccc(Nc3cccc4[nH]ncc34)n2)c1 | > 10 µM
NS(=O)(=O)c1ccc(N=Nc2c(O)[nH]c3cccc(CCc4ccncc4)c23)cc1 | > 10 µM
O=C(Nc1n[nH]c2nnc(-c3cccnc3)cc12)C1CC1 | > 10 µM
Cc1nn(C)c2cc(N(C)c3ccnc(Nc4cccc(S(N)(=O)=O)c4)n3)ccc12 | > 10 µM
CCn1cc(-c2ccnc3[nH]ccc23)c(-c2cccc(NC(=O)Nc3ccc(OCc4ccccc4)cc3)c2)n1 | > 10 µM
O=C(Nc1ccc(Oc2ccc3nc(NC(=O)c4ccco4)[nH]c3c2)cc1)Nc1cc(C(F)(F)F)ccc1F | > 10 µM
O=C(O[C@H]1CN[C@H](C#Cc2cc3ncnc(Nc4ccc(Cc5ccccc5)cc4)c3s2)C1)N1CCOCC1 | > 10 µM
NS(=O)(=O)c1ccc(-c2ccc3c(NC(=O)C4CC4)n[nH]c3c2)cc1 | > 10 µM
CN(C)CCOc1ccc(-c2cc(-c3ccc4c(c3)CCC4=NO)c(-c3ccncc3)o2)cc1 | > 10 µM
CCn1c(-c2nonc2N)nc2c(C#CC(C)(C)O)ncc(OCC3CCNCC3)c21 | > 10 µM
Nc1nonc1-c1nc2cnccc2n1C1CCCCC1 | > 10 µM
COc1ccc(-c2ccncc2)cc1C(N)=O | > 10 µM
CCOc1ccc2c(-c3ccnc(Nc4cc(OC)cc(C(F)(F)F)c4)n3)cnn2n1 | > 10 µM
COc1cc2ncn(-c3cc(O[C@H](C)c4ccccc4Cl)c(C(N)=O)s3)c2cc1OC | 0.1 µM
NS(=O)(=O)c1cccc(-c2ccc3c(NC(=O)C4CC4)n[nH]c3c2)c1 | > 10 µM
C[C@@H](Oc1cc(-n2cnc3ccc(OCC4CCN(C)CC4)cc32)sc1C(N)=O)c1ccccc1C(F)(F)F | 0.1 µM
O=C(Nc1n[nH]c2nc(-c3ccco3)ccc12)C1CC1 | > 10 µM

Structure (SMILES) | IC50 cell viability
Fc1cccc(COc2ccc(Nc3ncnc4sc(-c5cccs5)cc34)cc2Cl)c1 | > 10 µM
Cc1cc(O)cc(C)c1/C=C/c1cncc(C(N)=O)c1 | > 10 µM
CC(C)c1ccc2c(N=Nc3ccc(S(N)(=O)=O)cc3)c(O)[nH]c2c1 | > 10 µM
COc1ccc(CNC(=O)c2ccc(-c3cc(-c4nnc(C)o4)ccc3C)cc2)cc1 | > 10 µM
Cc1cccc(-c2[nH]ncc2-c2ccc3ncccc3n2)n1 | > 10 µM
Nc1ncnc2occ(-c3ccc(NC(=O)Nc4cccc(C(F)(F)F)c4)cc3)c12 | 5.2 µM
Fc1ccc(-c2c(-c3ccncc3)nc3n2CCS3)cc1 | > 10 µM
Fc1ccc(-c2ncn(CCCN3CCOCC3)c2-c2ccncc2)cc1 | > 10 µM
CNC(=O)c1cncc(/C=C/c2c(C)cccc2C)c1 | > 10 µM
Cc1ccc2c(-c3ccnc(Nc4ccc5c(c4)OCCO5)n3)c(-c3ccc(C(F)(F)F)cc3)nn2n1 | > 10 µM
NC(=O)c1cccc(Nc2nccc(Nc3cccc(F)c3)n2)c1 | > 10 µM
COc1cc(N2CCN(C(C)C)CC2)ccc1Nc1nc(Nc2ccc(F)cc2C(=O)NC[C@@H](O)CO)c2cc[nH]c2n1 | > 10 µM
COC(=O)Nc1nc2ccc(Oc3cccc(NC(=O)Nc4cc(C(F)(F)F)ccc4F)c3)cc2[nH]1 | > 10 µM
CC(=O)Nc1cccc(C#Cc2cncnc2Nc2ccc(OCc3cccc(F)c3)c(Cl)c2)c1 | > 10 µM
Fc1ccc(-c2ncn(C3CCNCC3)c2-c2ccnc(Oc3ccccc3)n2)cc1 | 3.3 µM
COc1ccc2cc(-c3c(-c4ccncc4)nc(-c4ccc(S(C)(=O)=O)cc4C)n3C)ccc2c1 | > 10 µM
O=C1NC(=O)C(c2cccc(Cl)c2)=C1Nc1ccc(Cl)c(C(=O)O)c1 | > 10 µM
Fc1ccc(-c2ncn(C3CCNCC3)c2-c2ccnc(Oc3ccc(F)c(F)c3)n2)cc1 | 6.2 µM
CC(=O)NCc1cccc(C#Cc2cncnc2Nc2ccc(OCc3cccc(F)c3)c(Cl)c2)c1 | > 10 µM
O=C(Nc1n[nH]c2cc(-c3cc(F)ccc3F)ccc12)C1CC1 | > 10 µM
NS(=O)(=O)c1cccc(-c2cc3ccncc3cc2OCc2ccccc2)c1 | > 10 µM
COC(=O)Nc1nc2ccc(S(=O)(=O)c3ccc(NC(=O)Nc4cc(C(F)(F)F)ccc4F)cc3)cc2[nH]1 | > 10 µM
NS(=O)(=O)c1ccc(Nc2ncc(-c3ccccc3)o2)cc1 | > 10 µM
CS(=O)(=O)CCNCc1cc(-c2cc3c(Nc4ccc(OCc5cccc(F)c5)c(Cl)c4)ncnc3s2)cs1 | > 10 µM
CCN1CCC(CC(=O)Nc2n[nH]c3nnc(-c4cccc(F)c4F)cc23)CC1 | 5.1 µM
